The values that follow come from patent US9650616B2, “Methods for increasing grain yield” (University of Florida Research Foundation, Inc., priority 2014, dated 2017).

Assay [1] addresses T1, maize endosperm AGPase, large subunit variant GG (Q96G, D161G; numbering of SEQ ID NO: 20) (Zea mays, UniProt P55241+Q84PF5, D161G/Q96G).
T1 sequence (P55241 46-516 D161G/Q96G): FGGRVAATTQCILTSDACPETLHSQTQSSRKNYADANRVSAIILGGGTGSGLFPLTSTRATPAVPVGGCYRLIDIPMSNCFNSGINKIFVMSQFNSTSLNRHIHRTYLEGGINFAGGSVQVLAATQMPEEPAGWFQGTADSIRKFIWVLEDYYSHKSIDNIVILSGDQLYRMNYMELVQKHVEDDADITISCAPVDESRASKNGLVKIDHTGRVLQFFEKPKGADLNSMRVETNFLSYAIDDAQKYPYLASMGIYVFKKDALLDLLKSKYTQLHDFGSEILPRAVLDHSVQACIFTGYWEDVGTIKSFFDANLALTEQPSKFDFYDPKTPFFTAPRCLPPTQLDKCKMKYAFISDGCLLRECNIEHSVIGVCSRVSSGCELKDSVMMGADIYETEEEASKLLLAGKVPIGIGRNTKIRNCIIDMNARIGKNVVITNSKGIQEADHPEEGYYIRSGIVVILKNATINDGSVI
T1 sequence (Q84PF5 1-474): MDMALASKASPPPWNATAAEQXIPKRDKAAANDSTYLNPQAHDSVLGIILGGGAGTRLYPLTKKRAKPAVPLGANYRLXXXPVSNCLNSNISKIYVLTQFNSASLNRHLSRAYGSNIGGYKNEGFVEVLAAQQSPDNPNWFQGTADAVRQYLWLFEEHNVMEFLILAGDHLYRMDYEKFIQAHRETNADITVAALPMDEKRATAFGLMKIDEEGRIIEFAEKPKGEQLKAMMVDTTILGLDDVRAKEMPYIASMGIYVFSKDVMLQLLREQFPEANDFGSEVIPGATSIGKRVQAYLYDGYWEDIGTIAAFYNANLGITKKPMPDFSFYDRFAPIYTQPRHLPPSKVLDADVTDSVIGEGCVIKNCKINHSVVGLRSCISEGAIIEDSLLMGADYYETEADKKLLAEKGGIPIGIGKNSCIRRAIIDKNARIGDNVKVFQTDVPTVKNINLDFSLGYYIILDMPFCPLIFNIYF
Briefly: Apparent kinetic constants with 3-PGA, 37° C., GG. It is filed as biochemical. As to conditions: read-out: ATP Km. From the text: The small and large subunit plasmids of maize endosperm AGPase (pMONcBt2 and pMONcSh2, respectively) (Giroux et al., 1996) were expressed in E. coli AC70R1-504 cells (Iglesias et al., 1993) as previously described (Boehlein et al., 2008).
An endpoint assay was used to determine the rate of the AGPase reaction by coupling the formation of PPi to a decrease in NADH concentration (Boehlein et al., 2008). […] The Michaelis constants (Km) were obtained by varying one substrate in the presence of saturating concentrations of the second substrate. The activation constants were obtained by varying the activator at fixed levels of both substrates. All reactions were performed at 37° C. and mixes were prewarmed before starting the reaction with enzyme. […] The absorbance at 340 nm was monitored after 30 min and the amount of PPi produced was determined from a standard curve using PPi in complete reaction mixtures lacking AGPase. Blank samples contained complete reaction mixtures without enzyme and the change in absorbance between the blank and the reaction was used to calculate the amount of PPi produced. […]
The apparent Michaelis constant and maximum velocity of each reaction was calculated from a V vs. S plots using nonlinear regression analysis and the following equation, v=VmaxS/(Km+S), where v is the measured velocity, Vmax is the maximum velocity, S is the substrate concentration. […]

Assay [2] deals with T2, maize endosperm AGPase, large subunit variant GGR (Q96G, D161G, A443R; numbering of SEQ ID NO: 20) (Zea mays, UniProt P55241+Q84PF5, A443R/D161G/Q96G).
T2 sequence (P55241 46-516 A443R/D161G/Q96G): T1 sequence (P55241 46-516 D161G/Q96G) with A398R
T2 sequence (Q84PF5 1-474): T1 sequence (Q84PF5 1-474)
In words: Kinetic constants in the absence of 3-PGA, GGR. It is filed as biochemical. On the procedure:
Reactions were performed for 10 min and terminated by boiling. Blank mixtures contained everything except ATP.
Based on the kinetic results (Table 10) and catalytic properties at 55° C. (Table 10) both D161G and GGR were selected for a more detailed kinetic analysis. […] The GGR mutant was primarily chosen based on its increased catalytic rate at 37° C. and high performance at 55° C. Its high activity in the absence of 3-PGA was also paramount. The first kinetic parameters determined were the Michaelis constants, the catalytic rate (kcat) and the dissociation constant (Kia) for the E-ATP complex, in the absence of 3-PGA. […] For the wt maize enzyme, this activator primarily responds by reducing the Km for both substrates, with little effect on the reaction rate (Boehlein et al., 2013). […] The kinetic mechanism established ATP as the first substrate to bind, thus the activator is no longer necessary for this first step. […] This variant also conditions both heat stability and high activity in the absence of an activator.

Structures are written as SMILES. Changes are numbered by the printed parent chain.

As to `Nc1ncnc2c1ncn2[C@@H]1O[C@H](COP(=O)(O)OP(=O)(O)OP(=O)(O)O)[C@@H](O)[C@H]1O` [ATP], the Km was found to be 31 µM in assay [1] and 100 µM in assay [2] (read-out: ATP Km). For the same compound, the kcat in assay [2] (ATP varied at fixed G-1-P) turned out to be 72.4 s⁻¹.

For orientation: Km means the substrate concentration at which the rate is half of its maximum. The kcat is the maximal rate divided by the concentration of active sites.
